Data from patent US9475773B2, “NK3 receptor antagonist compound (NK3RA) for use in a method for the treatment of polycystic ovary syndrome (PCOS)” (ASTRAZENECA AB, priority 2013, dated 2016).

Key:
hERG channel = hERG channel (Homo sapiens, UniProt Q12809); assay: hERG channel in vitro (tail current); assay type: cell-based
guinea pig heart = assay: Monophasic action potential of the guinea pig heart; assay type: in vivo; conditions: IV doses up to 46 mg/kg (100 μmol/kg)
rats [1] = assay: Cardiovascular effects in rats; assay type: in vivo, rat; conditions: 46 mg/kg orally (100 μmol/kg), highest dose tested
rat = assay: Rat cocaine drug discrimination assay; assay type: in vivo; conditions: oral doses up to 46 mg/kg
[2] = Pharmacokinetics and metabolism in rats; assay type: in vivo, rat
Description: (§1) At low doses, the estimated Clp of The NK3RA was moderate in rat (8.3 ml/min/kg) and low in the dog (1.2 ml/min/kg). Bioavailability (F) was ˜100% in both species indicating extensive absorption in these species. The volume of distribution (Vz) was moderate (1.6 L·kg in rat and 0.81 L/kg in dog) and consistent with the physico-chemical properties of the compound. […] The NK3RA exposure decreased after multiple dosing in rats, indicating either changes in absorption or induction of The NK3RA metabolism, or both, after multiple dosing. […] T1/2 values ranged from 5.6 hours to 14.3 hours at the end of dosing for dogs dosed at 1000 mg/kg/day (2180 μmol/kg/day). There were no consistent sex differences observed in the exposure to NK3RA in these 2 species.
(§2) Following oral administration of The NK3RA in the rat, a pharmacologically active ketone metabolite appeared rapidly in plasma but slowly reached maximum concentration levels in all animals. […] T1/2 values ranged from 8.51 hours to 13.8 hours on Day 27 and Day 28 for dogs dosed with 1000 mg/kg/day (2180 μmol/kg/day) of the NK3RA. There were no consistent sex differences observed in the exposure to the metabolite in these 2 species.

[3] = Pharmacokinetics and metabolism in dogs; assay type: in vivo; conditions: dog
Description: as §1, §2

rats [4] = assay: Single and repeat-dose toxicology in rats; assay type: in vivo, rat
Description: Relative epididymis weight was lower at 2000 mg/kg/day.

dogs = assay: Single and repeat-dose toxicology in dogs; assay type: in vivo, dog
Excerpt: In female dogs, ovarian uterine weights were reduced in treated animals. […] Thyroid weights were increased in the high dose group females. No other target organs have been identified.
Epididymides and prostate glands had gained maturity, but aspermia was present in all dogs and testicular immaturity remained. […]

female rabbits = assay: Rabbit maternal toxicity and fetal observations; assay type: in vivo
Description: In female rabbits, the no effect dose level for maternal toxicity was 25 mg/kg/day. The no adverse effect dose level for fetal observations was 50 mg/kg/day.

[5] = Pharmacokinetics in humans (healthy male subjects); assay type: in vivo, human
Description: Pharmacokinetic properties have been investigated in healthy male subjects. […] The elimination half-life for the NK3RA was approximately 7 hours. […] Renal elimination of the NK3RA or its metabolite was negligible. Following multiple dose administration, pharmacokinetic steady state was achieved within 4 days. At steady state, the exposure to the metabolite was approximately 66% of the parent circulated; the accumulation of the NK3RA in the plasma was minimal following QD dosing and was greater following BID dosing.

serum testosterone = assay: SAD and MAD studies, serum testosterone in healthy male volunteers; assay type: in vivo, human
[6] = rat 3 month study, 2000 mg/kg/day

Sequence of hERG channel (Q12809 whole entry): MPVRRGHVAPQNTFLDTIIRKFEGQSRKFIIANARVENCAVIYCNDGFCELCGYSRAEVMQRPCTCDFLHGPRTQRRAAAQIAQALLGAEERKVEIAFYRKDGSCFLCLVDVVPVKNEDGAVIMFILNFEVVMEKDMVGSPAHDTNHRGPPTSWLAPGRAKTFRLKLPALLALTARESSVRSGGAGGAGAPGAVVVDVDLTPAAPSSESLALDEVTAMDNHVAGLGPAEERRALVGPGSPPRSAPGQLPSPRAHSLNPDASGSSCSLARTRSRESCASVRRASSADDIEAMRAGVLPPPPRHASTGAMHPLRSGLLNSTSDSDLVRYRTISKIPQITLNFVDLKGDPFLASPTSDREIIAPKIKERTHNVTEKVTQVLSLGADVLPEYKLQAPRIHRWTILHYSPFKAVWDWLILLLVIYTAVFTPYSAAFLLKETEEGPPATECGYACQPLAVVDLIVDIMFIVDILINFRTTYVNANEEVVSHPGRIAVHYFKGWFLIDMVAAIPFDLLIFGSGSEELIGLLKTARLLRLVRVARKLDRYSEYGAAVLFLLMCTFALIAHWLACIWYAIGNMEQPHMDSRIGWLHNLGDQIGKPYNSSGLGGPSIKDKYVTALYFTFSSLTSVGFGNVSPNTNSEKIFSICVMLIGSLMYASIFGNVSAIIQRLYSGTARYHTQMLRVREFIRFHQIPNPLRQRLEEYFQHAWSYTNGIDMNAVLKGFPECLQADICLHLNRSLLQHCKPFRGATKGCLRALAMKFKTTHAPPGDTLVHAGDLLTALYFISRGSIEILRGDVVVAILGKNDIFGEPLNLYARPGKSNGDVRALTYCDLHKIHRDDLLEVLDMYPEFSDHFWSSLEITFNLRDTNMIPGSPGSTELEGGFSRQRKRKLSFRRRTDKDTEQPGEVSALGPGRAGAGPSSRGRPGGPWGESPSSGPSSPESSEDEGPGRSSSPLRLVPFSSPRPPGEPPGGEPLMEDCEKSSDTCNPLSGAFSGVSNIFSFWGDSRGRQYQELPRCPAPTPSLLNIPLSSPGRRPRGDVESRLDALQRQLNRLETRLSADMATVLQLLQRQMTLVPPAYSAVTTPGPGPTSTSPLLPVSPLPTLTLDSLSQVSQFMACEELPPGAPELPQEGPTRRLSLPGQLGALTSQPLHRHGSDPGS

CC[C@H](NC(=O)c1c(NS(C)(=O)=O)c(-c2ccccc2)nc2ccccc12)c1ccccc1 [NK3RA, 3-(methanesulfonamido)-2-phenyl-N-[(1S)-1-phenylpropyl]quinoline-4-carboxamide]
inhibition at 97 µM (hERG channel; human, 97 μM): 25% | activity at the hERG channel (hERG channel; in vitro): only weakly active | effect on monophasic action potential (guinea pig heart): without effect | cardiovascular effects (rats [1]): no cardiovascular effects | activity in cocaine drug discrimination (rat): no activity | clearance ([2]; plasma, rat, low doses, estimated, read-out: Clp): 8.3 mL/min/kg | volume of distribution (Vz) ([2]; rat): 1.6 L/kg | rate of absorption ([2]; rat, oral administration): absorbed at a moderate rate | bioavailability ([2]; rat, plasma, oral, read-out: Bioavailability (F)): ~100% | half-life ([2]; rat, plasma, read-out: elimination half-life (T½) (converted)): 3.2 h | exposure after multiple dosing ([2]; rats): decreased | accumulation after 28-day repeat dosing regimen [3]: no accumulation or reduction | rate of absorption ([3]; oral administration): more rapidly absorbed | half-life ([3]; plasma, oral, dogs dosed at 1000 mg/kg/day (2180 μmol/kg/day), read-out: T1/2 at the end of dosing): 5.6 to 14.3 h | bioavailability ([3]; plasma, oral, read-out: Bioavailability (F)): ~100% | half-life ([3]; plasma, read-out: elimination half-life (T½) (converted)): 9.5 h | Vd ([3]; plasma, read-out: volume of distribution (Vz)): 0.81 L/kg | clearance ([3]; plasma, low doses, estimated, read-out: Clp): 1.2 mL/min/kg | histological changes (rats [4]; rat 3 month study): no NK3RA-related histological changes | absolute testis weight (rats [4]; [6]): lower | relative epididymis weight (rats [4]; [6]): lower | relative testis weight (rats [4]; rat 3 month study, 200 and 2000 mg/kg/day (dose-related)): lower than controls | findings at the highest doses (rats [4]; rats): increased liver weights with no histological correlate | findings in the female reproductive system, repeat-dose toxicology studies (rats [4]; rats): no findings in the female reproductive system | tolerability, multiple dosing for three month (rats [4]; rats, up to 2000 mg/kg/day): well tolerated | tolerability, single dosing (rats [4]; rats, up to the limit dose of 2000 mg/kg): well tolerated | NOEL (testis, epididymis and prostate weights) (dogs; dog): no NOEL was established | plasma testosterone levels throughout the study (dogs; dog): virtually totally suppressed | testes weights following the recovery period (dogs; dog): only partially returned to control values | time after dosing by which plasma testosterone was very low (dogs; dog): ≤ 4 h | hepatobiliary toxicity (dogs; dogs): hepatobiliary toxicity in one high dose male | thyroid weights (dogs; dogs, high dose group females): increased | liver weights (dogs; dogs, mid and high doses): Increased | tolerability, multiple dosing for three month (dogs; dogs, up to 1000 mg/kg/day): well tolerated | tolerability, single dosing (dogs; dogs, up to the limit dose of 2000 mg/kg): well tolerated | female reproductive findings, 3-month study (dogs; female dogs): reductions in ovarian and uterine weights and an increased incidence of anestrus | ovarian uterine weights (dogs; female dogs): reduced | recovery of female reproductive findings (dogs; female dogs, following 3 months off-dose): complete recovery | target organs in males (dogs; male dogs): the testis, epididymis, and prostate were target organs | no adverse effect dose level for fetal observations (female rabbits): 50 mg/kg/day | no effect dose level for maternal toxicity (female rabbits): 25 mg/kg/day | accumulation in the plasma ([5]; BID dosing (compared with QD)): greater | accumulation in the plasma ([5]; QD dosing): minimal | absorption following oral dosing ([5]; healthy male subjects): quickly absorbed | renal elimination ([5]; healthy male subjects): negligible | time dependence of pharmacokinetics ([5]; human, in vivo): time independent | half-life ([5]; human, plasma, oral, healthy male subjects, read-out: elimination half-life (converted)): ~7 h | time to pharmacokinetic steady state ([5]; multiple dose administration): ≤ 4 days | dose proportionality of AUC and Cmax ([5]; up to approximately 80 mg): dose proportional | serum testosterone (serum testosterone; healthy male volunteers, SAD 1-80 mg, MAD 5 mg QD to 30 mg BID for up to 6 days): dose dependent reduction in serum testosterone | durability of total testosterone reduction (serum testosterone; male volunteers and male schizophrenia patients): reductions in total testosterone levels durable up to 28 days
